One data set addresses 5-HT7a (Homo sapiens, UniProt P34969). Kind of data set: cAMP accumulation GloSensor assay. In kind it is cell-based. Particulars: read-out: EC50 (inverse agonism).
For another data set, the target named is D3 (Homo sapiens, UniProt P35462). Kind of data set: G protein dissociation BRET assay. It counts as cell-based. Particulars: relative to dopamine. (Bioluminescence resonance energy transfer reports proximity on the nanometre scale.)
In a further data set the target is α1A (Homo sapiens, UniProt P35348). The data set can be described thus: G protein dissociation BRET assay. Particulars: read-out: KB (antagonist). It counts as cell-based.
Chain of α1A (P35348 whole entry): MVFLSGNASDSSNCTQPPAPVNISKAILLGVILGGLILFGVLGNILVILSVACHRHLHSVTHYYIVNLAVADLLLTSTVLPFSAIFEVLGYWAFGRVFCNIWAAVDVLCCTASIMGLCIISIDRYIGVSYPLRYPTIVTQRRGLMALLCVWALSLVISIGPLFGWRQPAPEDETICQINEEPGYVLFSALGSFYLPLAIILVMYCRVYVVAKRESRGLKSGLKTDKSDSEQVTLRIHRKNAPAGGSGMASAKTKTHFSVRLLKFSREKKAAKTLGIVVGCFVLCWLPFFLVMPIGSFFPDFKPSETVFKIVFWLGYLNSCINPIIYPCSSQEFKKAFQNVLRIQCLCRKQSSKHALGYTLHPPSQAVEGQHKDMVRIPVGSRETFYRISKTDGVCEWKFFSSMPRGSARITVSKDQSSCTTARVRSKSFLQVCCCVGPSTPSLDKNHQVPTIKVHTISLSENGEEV
For another data set, the target named is β1 (Homo sapiens, UniProt P08588). The data set can be described thus: G protein dissociation BRET assay. It counts as cell-based. Particulars: read-out: KB (antagonist).
Chain of β1 (P08588 whole entry): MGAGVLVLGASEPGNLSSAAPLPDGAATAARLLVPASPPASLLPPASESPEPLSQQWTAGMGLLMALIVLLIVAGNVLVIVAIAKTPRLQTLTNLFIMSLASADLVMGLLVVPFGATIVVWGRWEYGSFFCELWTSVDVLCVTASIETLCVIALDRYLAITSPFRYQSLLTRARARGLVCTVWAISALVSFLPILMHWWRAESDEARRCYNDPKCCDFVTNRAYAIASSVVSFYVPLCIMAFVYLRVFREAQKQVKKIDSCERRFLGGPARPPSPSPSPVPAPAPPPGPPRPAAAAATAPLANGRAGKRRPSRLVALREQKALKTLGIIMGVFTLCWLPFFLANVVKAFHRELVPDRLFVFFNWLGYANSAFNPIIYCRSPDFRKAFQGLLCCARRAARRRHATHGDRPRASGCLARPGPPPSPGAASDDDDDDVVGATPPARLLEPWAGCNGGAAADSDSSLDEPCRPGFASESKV
In another data set the target is Nav1.5 sodium channels (Homo sapiens, UniProt Q14524). The data set can be described thus: Off-target panel: Nav1.5.
Chain of Nav1.5 sodium channels (Q14524 whole entry): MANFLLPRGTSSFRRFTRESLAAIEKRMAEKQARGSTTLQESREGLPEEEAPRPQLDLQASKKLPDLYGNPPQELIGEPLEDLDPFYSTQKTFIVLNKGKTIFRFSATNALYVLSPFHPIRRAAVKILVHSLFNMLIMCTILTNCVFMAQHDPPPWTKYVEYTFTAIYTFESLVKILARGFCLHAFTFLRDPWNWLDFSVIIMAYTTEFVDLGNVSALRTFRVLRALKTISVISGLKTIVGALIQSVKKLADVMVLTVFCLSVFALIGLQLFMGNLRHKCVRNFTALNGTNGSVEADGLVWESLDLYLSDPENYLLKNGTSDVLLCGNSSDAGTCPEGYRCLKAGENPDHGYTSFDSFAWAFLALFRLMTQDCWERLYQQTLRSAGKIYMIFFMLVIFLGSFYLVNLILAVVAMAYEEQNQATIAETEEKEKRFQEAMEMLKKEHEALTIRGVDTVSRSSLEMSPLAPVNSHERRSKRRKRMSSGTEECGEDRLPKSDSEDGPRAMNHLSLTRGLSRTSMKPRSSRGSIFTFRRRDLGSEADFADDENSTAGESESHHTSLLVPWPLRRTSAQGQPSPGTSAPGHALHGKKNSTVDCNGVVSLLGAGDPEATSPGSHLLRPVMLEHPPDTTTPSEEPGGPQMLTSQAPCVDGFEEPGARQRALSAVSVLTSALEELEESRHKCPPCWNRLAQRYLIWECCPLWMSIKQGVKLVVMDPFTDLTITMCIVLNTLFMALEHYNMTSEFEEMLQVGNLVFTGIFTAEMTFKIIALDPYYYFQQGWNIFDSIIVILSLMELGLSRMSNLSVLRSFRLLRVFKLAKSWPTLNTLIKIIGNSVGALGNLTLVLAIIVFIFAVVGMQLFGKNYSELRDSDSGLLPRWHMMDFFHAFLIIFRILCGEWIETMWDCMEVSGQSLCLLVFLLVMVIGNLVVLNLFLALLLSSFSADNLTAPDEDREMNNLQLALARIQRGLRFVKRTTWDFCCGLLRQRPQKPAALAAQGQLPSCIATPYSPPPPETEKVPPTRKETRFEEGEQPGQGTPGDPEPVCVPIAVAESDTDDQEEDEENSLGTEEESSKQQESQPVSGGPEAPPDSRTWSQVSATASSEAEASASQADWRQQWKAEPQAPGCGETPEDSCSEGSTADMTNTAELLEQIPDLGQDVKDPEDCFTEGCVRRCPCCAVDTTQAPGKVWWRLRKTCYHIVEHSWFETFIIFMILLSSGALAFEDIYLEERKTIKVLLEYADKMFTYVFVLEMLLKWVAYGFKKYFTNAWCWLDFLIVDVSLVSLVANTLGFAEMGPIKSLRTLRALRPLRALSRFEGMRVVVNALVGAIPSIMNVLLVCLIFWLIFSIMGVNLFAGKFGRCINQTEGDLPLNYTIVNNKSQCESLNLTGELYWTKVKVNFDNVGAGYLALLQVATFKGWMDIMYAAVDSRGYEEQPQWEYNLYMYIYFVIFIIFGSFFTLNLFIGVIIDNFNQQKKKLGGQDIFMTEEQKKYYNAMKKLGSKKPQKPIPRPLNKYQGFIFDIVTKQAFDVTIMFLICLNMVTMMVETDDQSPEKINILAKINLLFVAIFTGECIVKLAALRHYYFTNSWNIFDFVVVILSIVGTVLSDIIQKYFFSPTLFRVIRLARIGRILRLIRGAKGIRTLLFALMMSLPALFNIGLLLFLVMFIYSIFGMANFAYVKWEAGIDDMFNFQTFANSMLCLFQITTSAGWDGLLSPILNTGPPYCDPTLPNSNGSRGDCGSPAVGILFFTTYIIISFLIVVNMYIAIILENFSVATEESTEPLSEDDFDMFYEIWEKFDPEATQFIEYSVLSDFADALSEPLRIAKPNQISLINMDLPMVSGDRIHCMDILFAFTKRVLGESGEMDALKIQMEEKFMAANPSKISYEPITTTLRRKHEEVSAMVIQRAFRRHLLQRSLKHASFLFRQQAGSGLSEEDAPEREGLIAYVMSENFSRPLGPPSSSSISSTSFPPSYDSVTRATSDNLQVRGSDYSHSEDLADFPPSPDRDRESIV
Data set [1] has as its system 44 known off-targets and other transporters. The data set can be described thus: Eurofins panel of 44 known off-targets and other transporters.
The target in another data set is 5-HT2C (Homo sapiens, UniProt P28335). In kind it is cell-based.
Chain of 5-HT2C (P28335 33-458): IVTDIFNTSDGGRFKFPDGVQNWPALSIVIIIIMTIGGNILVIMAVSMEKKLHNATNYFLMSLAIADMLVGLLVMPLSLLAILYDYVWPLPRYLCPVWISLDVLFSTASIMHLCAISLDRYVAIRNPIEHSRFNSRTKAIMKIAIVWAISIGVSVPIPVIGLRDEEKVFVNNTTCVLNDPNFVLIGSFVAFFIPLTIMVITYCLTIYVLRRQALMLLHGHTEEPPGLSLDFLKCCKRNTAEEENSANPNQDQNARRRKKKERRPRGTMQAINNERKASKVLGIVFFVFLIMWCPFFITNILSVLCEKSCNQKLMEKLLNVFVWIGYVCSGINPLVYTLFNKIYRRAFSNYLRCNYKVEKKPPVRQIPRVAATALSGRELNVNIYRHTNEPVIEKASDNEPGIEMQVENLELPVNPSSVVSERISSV
A short description of data set [2]: Chronic variable stress: open field test. It counts as in vivo, female mice.
Another data set deals with hERG (KV11.1) channel (Homo sapiens, UniProt Q12809). Kind of data set: hERG inhibition. A general note: hERG is a cardiac potassium channel; its block is linked to QT prolongation.
Chain of hERG (KV11.1) channel (Q12809 whole entry): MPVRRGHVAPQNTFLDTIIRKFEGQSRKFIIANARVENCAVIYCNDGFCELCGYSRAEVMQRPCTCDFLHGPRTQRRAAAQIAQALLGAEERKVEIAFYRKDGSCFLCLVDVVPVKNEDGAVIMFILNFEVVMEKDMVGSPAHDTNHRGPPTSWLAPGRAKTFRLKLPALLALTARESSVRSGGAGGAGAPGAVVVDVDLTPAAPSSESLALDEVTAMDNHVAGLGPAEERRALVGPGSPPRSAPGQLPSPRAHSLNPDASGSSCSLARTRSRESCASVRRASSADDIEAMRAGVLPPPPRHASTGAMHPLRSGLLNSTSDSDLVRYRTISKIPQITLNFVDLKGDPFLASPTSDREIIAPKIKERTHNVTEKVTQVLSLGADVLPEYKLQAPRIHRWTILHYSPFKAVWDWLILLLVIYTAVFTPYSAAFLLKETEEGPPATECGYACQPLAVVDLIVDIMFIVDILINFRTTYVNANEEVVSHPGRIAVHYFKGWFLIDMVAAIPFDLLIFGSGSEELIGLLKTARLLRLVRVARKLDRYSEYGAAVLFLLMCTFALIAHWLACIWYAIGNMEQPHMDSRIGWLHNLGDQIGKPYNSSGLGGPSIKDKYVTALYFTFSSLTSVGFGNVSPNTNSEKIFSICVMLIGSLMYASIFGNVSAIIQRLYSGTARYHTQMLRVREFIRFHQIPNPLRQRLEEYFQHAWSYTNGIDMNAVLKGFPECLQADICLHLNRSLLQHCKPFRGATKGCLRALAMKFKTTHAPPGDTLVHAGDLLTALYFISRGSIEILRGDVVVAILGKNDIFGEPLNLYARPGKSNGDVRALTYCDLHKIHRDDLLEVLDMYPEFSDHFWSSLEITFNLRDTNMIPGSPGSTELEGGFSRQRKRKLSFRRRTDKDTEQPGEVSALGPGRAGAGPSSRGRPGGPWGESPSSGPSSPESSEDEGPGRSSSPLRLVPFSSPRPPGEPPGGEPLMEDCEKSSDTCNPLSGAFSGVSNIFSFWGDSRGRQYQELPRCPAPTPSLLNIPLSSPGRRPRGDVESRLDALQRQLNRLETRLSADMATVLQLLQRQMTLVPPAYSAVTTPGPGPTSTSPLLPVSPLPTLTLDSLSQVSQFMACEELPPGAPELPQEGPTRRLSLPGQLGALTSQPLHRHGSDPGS
Another data set has as its system PFC pyramidal neurons. Kind of data set: Spine density in prefrontal cortex. Particulars: 1 mg/kg IP, ~26 h after treatment, both sexes.

Chain of D3 (P35462 whole entry): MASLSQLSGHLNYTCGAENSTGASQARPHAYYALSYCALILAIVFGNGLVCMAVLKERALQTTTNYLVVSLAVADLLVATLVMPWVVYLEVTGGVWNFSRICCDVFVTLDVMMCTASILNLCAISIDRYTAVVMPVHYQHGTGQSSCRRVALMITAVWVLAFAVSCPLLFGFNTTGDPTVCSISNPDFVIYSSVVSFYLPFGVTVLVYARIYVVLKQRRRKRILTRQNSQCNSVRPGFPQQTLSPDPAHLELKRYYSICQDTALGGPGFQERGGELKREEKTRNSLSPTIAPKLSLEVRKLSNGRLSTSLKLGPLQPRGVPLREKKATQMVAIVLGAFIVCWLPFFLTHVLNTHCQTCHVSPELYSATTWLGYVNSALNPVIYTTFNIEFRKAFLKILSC

As a reminder, the EC50 is the concentration at which the effect is half-maximal. Broadly, the Kb is the equilibrium dissociation constant of an antagonist, usually derived from a functional assay. As to `CCN(CC)C(=O)[C@@H]1C=C2c3cccc4[nH]c(Br)c(c34)C[C@H]2N(C)C1.CCN(CC)C(=O)[C@@H]1C=C2c3cccc4[nH]c(Br)c(c34)C[C@H]2N(C)C1.O=C(O)C(O)C(O)C(=O)O` [2-Br-LSD, (6aR,9R)-2-bromolysergic acid diethylamide (2:1) (+)-tartrate], the figures for the EC50 at 5-HT7a, at Nav1.5 sodium channels and at hERG (KV11.1) channel were 5.1 nM, 1100 nM and 31.6 µM, respectively. Also, the EMAX on D3 is listed as 32%. Further, the antagonist dissociation constant (Kb) at α1A was found to be 43 nM; on β1 it was 113 nM. For the same molecule, the “preference for serotonin and dopamine GPCRs over off-targets” value in data set [1] is reported as above 100 fold. For the same molecule, the β-arrestin2 recruitment agonism result on 5-HT2C was “no detectable β-arrestin2 recruitment agonism”. Also, the “exploration of the arena center in CVS mice” value in [2] (1X 3 mg/kg IP) is “partially restored the effect of CVS”; in [2] (4X 1 mg/kg IP every 48 h), “levels matching the control”. Moreover, the “time exploring the center in CVS mice” value in data set [2] (4X 1 mg/kg, 28 days after the last treatment) is listed as “remained reversed”. The “average spine density in PFC” value in the data set on PFC pyramidal neurons was “significant increase in average spine density”.

The values above are taken from paper PMC10112881 (Cell reports, 2023).
